One assay has as its target T1, soybean lipoxygenase 1-B (Glycine max, UniProt P08170).
T1 construct: purchased Sigma (St. Louis, MO, U.S.A.)
T1 sequence (P08170 1-839): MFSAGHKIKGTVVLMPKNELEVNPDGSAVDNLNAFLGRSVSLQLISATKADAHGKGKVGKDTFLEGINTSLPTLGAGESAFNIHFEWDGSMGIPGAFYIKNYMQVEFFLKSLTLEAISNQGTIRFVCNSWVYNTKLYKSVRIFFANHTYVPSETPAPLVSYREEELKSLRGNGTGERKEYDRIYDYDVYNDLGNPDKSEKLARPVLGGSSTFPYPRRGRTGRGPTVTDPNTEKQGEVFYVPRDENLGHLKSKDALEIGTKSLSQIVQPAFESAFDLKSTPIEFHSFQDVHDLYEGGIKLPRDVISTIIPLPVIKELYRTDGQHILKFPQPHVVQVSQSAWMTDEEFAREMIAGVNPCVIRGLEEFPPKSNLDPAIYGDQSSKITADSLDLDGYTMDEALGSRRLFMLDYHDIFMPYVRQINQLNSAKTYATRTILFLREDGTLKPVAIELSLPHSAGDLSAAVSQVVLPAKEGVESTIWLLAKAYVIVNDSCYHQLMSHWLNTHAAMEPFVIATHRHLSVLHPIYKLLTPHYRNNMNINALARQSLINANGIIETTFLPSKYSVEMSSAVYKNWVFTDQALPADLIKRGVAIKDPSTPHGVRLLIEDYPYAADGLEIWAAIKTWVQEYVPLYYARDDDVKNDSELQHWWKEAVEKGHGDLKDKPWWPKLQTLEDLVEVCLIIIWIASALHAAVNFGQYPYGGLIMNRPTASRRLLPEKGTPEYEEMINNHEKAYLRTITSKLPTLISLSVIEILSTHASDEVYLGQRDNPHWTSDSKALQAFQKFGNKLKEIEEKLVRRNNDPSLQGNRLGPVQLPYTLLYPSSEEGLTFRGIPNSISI
Briefly: In vitro soybean lipoxygenase inhibition, linoleate as substrate. Type of assay: biochemical. The following applies: sodium linoleate 100 μM; after 7 min of incubation; pH 9.0, 28 °C. The protocol: The reaction mixture contained the examined compounds (in absolute ethanol, 1–300 μM), soybean lipoxygenase (in saline, 250 u/mL) and sodium linoleate (100 μM), in Tris–HCl buffer, pH 9.0. The reaction was monitored for 7 min at 28 °C, recording the absorbance at 234 nm. […]

The test system of assay [1] is carrageenan-induced rat paw oedema. Kind of assay: Carrageenan-induced rat paw oedema. Type of assay: in vivo, Wistar rats. Particulars: 0.15 mmol/kg i.p., oedema after 3.5 h, vs carrageenan-only controls; for inhibition in vivo at 150 µmol/kg: Rattus norvegicus, ip, read-out: % Oedema Reduction. The protocol:
The carrageenan-induced paw oedema is a well-known and widely used model of acute inflammation. The response to carrageenan inflammation may be divided into three phases. In the first phase (after 1.5 h), histamine and serotonin are released, the second phase (1.5–2.5 h after carrageenan administration) is mediated by kinins, whereas, in the third phase, more than two hours post administration, neutrophil infiltration, prostaglandin production and release of pro-inflammatory cytokines are involved. In this work, oedema was measured 3.5 h post injection.
κ-Carrageenan and lipoxygenase type I-B from soybean were purchased from Sigma (St. Louis, MO, U.S.A.).
The tested compounds (in water with a few drops of Tween 80) were given i.p. (0.15 mmol/kg) to rats, just after the i.d. injection of 0.1 mL of an aqueous carrageenan solution (1% w/v) in the hind paw of rats. The produced oedema, after 3.5 h, was estimated as paw weight increase.

Assay [2] in a line: In vitro nitrogen monoxide release (Griess reagent). The protocol:
Due to their poor aqueous solubility, compounds 1, 3-7 and 9 were dissolved in 7/3 (v/v) mixture of DMSO/water at various concentrations and incubated overnight at room temperature in the presence of cadmium. S-nitroso-N-acetylpenicillamine (SNAP) was dissolved either in DMSO/water 7/3 or in water and treated as above.
Aliquots were taken from each sample and added to an equal volume of N-naphthylaminoethylamine (0.2%) and sulfanilamide (2%) solution in 3 N hydrochloric acid (Griess reagent). Appropriate sodium nitrite solutions in the same DMSO/water mixture were used for the construction of the standard curve and values were identical to those obtained with aqueous solutions. Nitric oxide release was estimated spectrophotometrically (540 nm).
(In general: Griess reagent forms a coloured azo dye with nitrite.)

Another assay concerns hyperlipidaemic rats. Kind of assay: Triton WR1339 (tyloxapol) induced hyperlipidaemia in rats. It is filed as in vivo, Wistar rats. The following applies: tyloxapol 200 mg/kg i.p.; for inhibition in vivo at 150 µmol/kg / inhibition in vivo at 300 µmol/kg / inhibition in vivo at 500 µmol/kg: Rattus norvegicus, ip, 24 h; for inhibition in vivo at 300 µmol/kg: 300 μmol/kg i.p.; for inhibition in vivo at 500 µmol/kg: 500 μmol/kg i.p. The source says: The pleiotropic effects of statins, used as hypolipidaemic drugs, include antioxidant ability and direct increase of eNOS activity, in addition to inhibition of 3-hydroxy-3-methylglutaryl coenzyme A (HMG-CoA) reductase. […] The systemic administration of Triton-WR1339 (tyloxapol) to rats induces a biphasic elevation of plasma cholesterol, atherogenic VLDL cholesterol and LDL cholesterol, as well as triglyceride levels. […] Agents shown to be active in phase I are considered to interfere with cholesterol biosynthesis.
κ-Carrageenan and lipoxygenase type I-B from soybean were purchased from Sigma (St. Louis, MO, U.S.A.). For the in vivo experiments, Wistar rats (180–220 g, 3–4 months old) were kept in the Centre of the School of Veterinary Medicine (EL54 BIO42), Aristotelian University of Thessaloniki, which is registered by the official state veterinary authorities (presidential degree 56/2013, in harmonization with the European Directive 2010/63/EEC). The experimental protocols were approved by the Animal Ethics Committee of the Prefecture of Central Macedonia (no. 270079/2500).
Hyperlipidaemia was induced by the i.p. administration of Triton WR 1339 (200 mg/kg) to rats. […] Blood was taken from the aorta after 24 h, for the determination of plasma total cholesterol, LDL-cholesterol and triglyceride concentrations, using commercial kits.

Where [3] appears, read: compound 31.25 μM, DMSO/water 7/3, overnight, cadmium.
Setting [4] is: compound 62.5 μM, DMSO/water 7/3, overnight, cadmium.
[5] abbreviates: compound 125 μM, DMSO/water 7/3, overnight, cadmium.
[6] abbreviates: compound 250 μM, DMSO/water 7/3, overnight, cadmium.
Where [7] appears, read: compound 500 μM, DMSO/water 7/3, overnight, cadmium.
Where [8] appears, read: 150 μmol/kg i.p., plasma after 24 h, read-out: % Reduction LDL-C (LDL cholesterol).
[9] abbreviates: 150 μmol/kg i.p., plasma after 24 h, read-out: % Reduction TC (total cholesterol).
The mark [10] stands for this setting: 150 μmol/kg i.p., plasma after 24 h, read-out: % Reduction TG (triglycerides).
The mark [11] stands for this setting: read-out: % Reduction LDL-C (LDL cholesterol).
Setting [12] is: read-out: % Reduction TC (total cholesterol).
Where [13] appears, read: read-out: % Reduction TG (triglycerides).

Ten molecules from paper PMC6982741, “Design, Synthesis and Study of Nitrogen Monoxide Donors as Potent Hypolipidaemic and Anti-Inflammatory Agents” (Molecules, 2019) can be followed below.

pIC50: −log10 of the molar value. Like-named read-outs stand apart in the source and are kept apart here. Marks after values point to notes of the source that are not given here.

Consider `CC(C)Cc1ccc(C(C)C(=O)OCCO[N+](=O)[O-])cc1` (racemic) [Compound 1, (±)-2-(Nitrooxy)ethyl 2-(4-isobutylphenyl)propanoate], for which the pIC50 against soybean lipoxygenase 1-B was 4.34. Moreover, the inhibition in vivo at 150 µmol/kg in assay [1] came out at 76%; with hyperlipidaemic rats (setting [8]), 80%; in the assay with hyperlipidaemic rats (setting [9]), 62.2%; in the assay with hyperlipidaemic rats (setting [10]), 30.1%. Further, the “NO Release” value is 7 μΜ in assay [2] (setting [3]); 17 μΜ in assay [2] (setting [4]); 40 μΜ in assay [2] (setting [5]); 82 μΜ in assay [2] (setting [6]); 116 μΜ in assay [2] (setting [7]).

As for `CC(C)Cc1ccc(C(C)C(=O)OCCc2ccc([N+](=O)[O-])cc2)cc1` (racemic) [Compound 2, (±)-4-Nitrophenethyl 2-(4-isobutylphenyl)propanoate], on soybean lipoxygenase 1-B, the pIC50 was 4.62. The inhibition in vivo at 150 µmol/kg in assay [1] was 53%.

At soybean lipoxygenase 1-B, `CC(C(=O)OCCO[N+](=O)[O-])c1cccc(C(=O)c2ccccc2)c1` (racemic) [Compound 5, (±)-2-(Nitrooxy)ethyl 2-(3-benzoylphenyl)propanoate] gave a pIC50 of 4.07. Besides, the inhibition in vivo at 150 µmol/kg was 75% in assay [1], 57.8% in the assay with hyperlipidaemic rats (setting [8]), 46.6% in the assay with hyperlipidaemic rats (setting [9]) and 40.2% in the assay on hyperlipidaemic rats (setting [10]). Moreover, the “NO Release” value in assay [2] (setting [3]) was determined as 4 μΜ; in assay [2] (setting [4]) it was 11 μΜ; in assay [2] (setting [5]) it was 26 μΜ; in assay [2] (setting [6]) it was 57 μΜ; in assay [2] (setting [7]) it was 100 μΜ.

As to `COc1ccc2cc(C(C)C(=O)OCCO[N+](=O)[O-])ccc2c1` (single isomer, unassigned; (+)) [Compound 4, (+)-2-(Nitrooxy)ethyl 2-(6-methoxynaphthalen-2-yl)propanoate], the pIC50 against soybean lipoxygenase 1-B is under 3.52. The “% Oedema Reduction” value in assay [1] is given as 70 ** %. For the same molecule, the inhibition in vivo at 150 µmol/kg in assay [1] worked out at 70%; with hyperlipidaemic rats (setting [8]), 84.6%; in the assay on hyperlipidaemic rats (setting [9]), 80%; in the assay with hyperlipidaemic rats (setting [10]), 38.9%. Moreover, the “NO Release” value in assay [2] (setting [3]) is 2.5 μΜ; in assay [2] (setting [4]), 7 μΜ; in assay [2] (setting [5]), 17 μΜ; in assay [2] (setting [6]) it was 37 μΜ; in assay [2] (setting [7]), 73 μΜ.

Turning to `O=C(/C=C/c1ccccc1)OCCO[N+](=O)[O-]` [Compound 6, (E)-2-(Nitrooxy)ethyl cinnamate], the pIC50 at soybean lipoxygenase 1-B was 3.66. Moreover, the inhibition in vivo at 150 µmol/kg in assay [1] is 61%; in the assay on hyperlipidaemic rats (setting [8]), 74.8%; in the assay with hyperlipidaemic rats (setting [9]), 70.9%; in the assay on hyperlipidaemic rats (setting [10]), 54.4%. Moreover, the “NO Release” value amounted to 5 μΜ in assay [2] (setting [3]); 11 μΜ in assay [2] (setting [4]); 22 μΜ in assay [2] (setting [5]); 51 μΜ in assay [2] (setting [6]); 98 μΜ in assay [2] (setting [7]).

With `CC(C)Cc1ccc(C(C)C(=O)O)cc1` (centres unmarked) [Ibuprofen, reference compound], the inhibition in vivo at 150 µmol/kg in assay [1] is 36%. The inhibition in vivo at 300 µmol/kg was 41.6% in the assay with hyperlipidaemic rats (setting [11]), 41% in the assay on hyperlipidaemic rats (setting [12]) and 38% with hyperlipidaemic rats (setting [13]).

For the molecule `COc1ccc2c(c1)c(CC(=O)O)c(C)n2C(=O)c1ccc(Cl)cc1` [Indomethacin, reference compound], the inhibition in vivo at 150 µmol/kg in assay [1] was found to be 42%.

Turning to `COc1ccc2cc([C@H](C)C(=O)O)ccc2c1` [Naproxen, reference compound], in assay [1], the inhibition in vivo at 150 µmol/kg came out at 11%. Also, the inhibition in vivo at 500 µmol/kg came to 25.5% with hyperlipidaemic rats (setting [11]), 53% in the assay with hyperlipidaemic rats (setting [12]) and 43.5% with hyperlipidaemic rats (setting [13]).

As for `CCC(C)(C)C(=O)O[C@H]1C[C@@H](C)C=C2C=C[C@H](C)[C@H](CC[C@@H]3C[C@@H](O)CC(=O)O3)[C@H]21` [Simvastatin, reference compound], in the assay with hyperlipidaemic rats (150 μmol/kg i.p., plasma after 24 h), the “% Reduction TG (triglycerides)” value is listed as “no effect”. The inhibition in vivo at 150 µmol/kg in the assay with hyperlipidaemic rats (setting [8]) was determined as 70%.

As for “S-nitroso-N-acetylpenicillamine [SNAP, reference compound]”, the NO Release in assay [2] (100 μM compound, in water) stood at 56.7 μΜ; in assay [2] (per 100 μM compound, DMSO/water 7/3) it was 56.3 μΜ.

As a reminder, the pIC50 is the negative decadic logarithm of the IC50, by convention in mol/L. Low values mean a high IC50, high ones a low IC50.
